Results on two molecules are retold here after patent publication US20040171061A1 (priority 2000, published 2004).

Each structure is given as a SMILES string.

One experiment deals with firefly luciferase (Photinus pyralis, UniProt P08659). The experiment can be described thus: Direct influence on luciferase activity (control). The experiment is classed as biochemical. Particulars: not shown.
Experiment [1] addresses autophagocytosis (luciferase uptake into isolated yeast vacuoles). The experiment can be described thus: In vitro autophagocytosis assay (luciferase uptake into isolated vacuoles). Particulars: standard uptake reaction, cell-free, sample without inhibitor as 100% reference, FIG. 7; read-out: IC50 for prevention of vesicle formation (luciferase uptake). The experiment is classed as biochemical, Saccharomyces cerevisiae. Here is the method: This mixture was incubated for 1 h at 27° C. A 70 μl sample was chilled on ice, diluted with 300 μl 150 mM KCl in PS buffer, centrifuged (6800×g, 4 min, 2° C., fixed angle table top centrifuge), washed twice with 300 μl 150 mM KCl in PS buffer, and resuspended in 60 μl 150 mM KCl in PS buffer. 10 μl were used to check for complete vacuole recovery by determining the protein concentration or, alternatively, the activity of endogenous Pho8p (according to Haas et al., 1994). 40 μl of the suspension were treated with proteinase K (15 min, 0° C., 275 μg/ml, added from a 5 mg/ml stock in PS) to digest surface-bound luciferase. Digestion was terminated by adding an equal volume of freshly prepared PMSF solution (0.5 mM PMSF, 150 mM KCl, in PS buffer). Luciferase activity was determined from a 25 μl aliquot in a luminometer using a luciferase kit (Berthold Detection Systems, Pforzheim) according to the instructions of the supplier.

The test system of experiment [2] is autophagocytosis in yeast. Particulars: nocodazole treatment disassembling microtubules (Kirisako et al. 1999); cited from earlier work.

firefly luciferase, sequence (P08659 whole entry): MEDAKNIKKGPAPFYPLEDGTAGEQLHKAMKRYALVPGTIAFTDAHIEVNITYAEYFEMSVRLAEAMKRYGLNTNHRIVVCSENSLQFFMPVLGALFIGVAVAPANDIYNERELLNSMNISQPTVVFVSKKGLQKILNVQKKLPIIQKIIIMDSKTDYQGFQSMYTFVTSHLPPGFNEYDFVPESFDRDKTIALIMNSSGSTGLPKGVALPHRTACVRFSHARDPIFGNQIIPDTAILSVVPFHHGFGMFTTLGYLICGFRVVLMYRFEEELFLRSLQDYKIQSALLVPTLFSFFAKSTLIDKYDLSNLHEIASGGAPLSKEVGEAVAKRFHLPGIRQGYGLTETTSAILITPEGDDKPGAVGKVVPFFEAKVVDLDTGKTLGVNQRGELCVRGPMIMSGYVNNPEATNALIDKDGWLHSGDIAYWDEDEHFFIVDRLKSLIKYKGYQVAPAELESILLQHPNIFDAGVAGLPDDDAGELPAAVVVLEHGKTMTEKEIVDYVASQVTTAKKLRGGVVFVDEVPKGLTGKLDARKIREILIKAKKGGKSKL

For the molecule `Nc1nc2c(ncn2[C@@H]2O[C@H](COP(=O)(O)OP(=O)(O)OP(O)(O)=S)[C@@H](O)[C@H]2O)c(=O)[nH]1` [GTPγS], the “influence on luciferase activity by itself” value at firefly luciferase was “did not influence luciferase activity by itself”. Moreover, the IC50 (as a rule, the concentration that inhibits the measured activity by half) in experiment [1] is 100 µM. For the molecule `COC(=O)Nc1nc2ccc(C(=O)c3cccs3)cc2[nH]1` [nocodazole], the “block of autophagocytosis in yeast” value in experiment [2] is “does not block autophagocytosis”.
